Measurements taken from US10456394B2, “Tetrahydroquinoline substituted hydroxamic acids as selective histone deacetylase 6 inhibitors” (THE BOARD OF TRUSTEES OF THE UNIVERSITY OF ILLINOIS, priority 2016, dated 2019).

Assays:
[1] = test system: traumatic brain injury; settings: following traumatic brain injury in rats; cited from earlier work
[2] = target: Human HDAC6 (Homo sapiens (Human), UniProt Q9UBN7); experiment: HDAC enzyme activity inhibition assay, HDAC6; assay type: biochemical; settings: Table 1; for IC50: mean of two experiments ± standard deviation, 10-point assay from 30 μM, 3-fold serial dilution; for Selectivity HDAC1/HDAC6: ratio of IC50 values
Sequence of Human HDAC6 (Q9UBN7 whole entry): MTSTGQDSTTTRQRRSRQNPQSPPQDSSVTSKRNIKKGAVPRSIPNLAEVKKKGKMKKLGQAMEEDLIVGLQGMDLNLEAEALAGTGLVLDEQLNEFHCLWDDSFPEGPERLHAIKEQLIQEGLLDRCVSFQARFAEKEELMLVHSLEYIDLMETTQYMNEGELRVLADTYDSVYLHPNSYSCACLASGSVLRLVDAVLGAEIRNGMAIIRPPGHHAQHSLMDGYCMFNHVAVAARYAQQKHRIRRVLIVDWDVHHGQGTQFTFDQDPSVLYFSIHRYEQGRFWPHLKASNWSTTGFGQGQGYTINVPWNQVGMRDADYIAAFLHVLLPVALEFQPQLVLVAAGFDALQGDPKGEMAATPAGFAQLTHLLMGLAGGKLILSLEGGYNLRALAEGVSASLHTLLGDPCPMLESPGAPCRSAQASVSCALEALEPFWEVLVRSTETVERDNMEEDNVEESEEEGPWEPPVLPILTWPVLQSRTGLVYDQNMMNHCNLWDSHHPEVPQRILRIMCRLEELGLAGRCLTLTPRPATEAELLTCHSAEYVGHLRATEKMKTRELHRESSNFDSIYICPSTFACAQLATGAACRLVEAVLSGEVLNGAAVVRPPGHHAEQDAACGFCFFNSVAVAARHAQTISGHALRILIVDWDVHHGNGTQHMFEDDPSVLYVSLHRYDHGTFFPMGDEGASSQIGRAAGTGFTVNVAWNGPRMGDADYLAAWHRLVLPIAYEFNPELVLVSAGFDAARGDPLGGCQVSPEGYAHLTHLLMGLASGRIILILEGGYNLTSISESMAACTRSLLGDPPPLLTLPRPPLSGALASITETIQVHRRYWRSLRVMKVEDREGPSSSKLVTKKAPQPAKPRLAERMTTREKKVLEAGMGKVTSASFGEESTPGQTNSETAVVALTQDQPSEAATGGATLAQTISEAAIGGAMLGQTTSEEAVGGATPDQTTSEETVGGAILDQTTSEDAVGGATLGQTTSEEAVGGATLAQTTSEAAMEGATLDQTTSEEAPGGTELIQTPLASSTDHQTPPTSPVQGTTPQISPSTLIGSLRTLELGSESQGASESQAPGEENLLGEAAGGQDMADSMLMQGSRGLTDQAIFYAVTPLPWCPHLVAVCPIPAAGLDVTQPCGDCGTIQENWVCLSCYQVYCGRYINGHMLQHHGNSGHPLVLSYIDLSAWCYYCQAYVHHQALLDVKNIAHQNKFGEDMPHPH

[3] = target: Human HDAC1 (Homo sapiens (Human), UniProt Q13547); experiment: HDAC enzyme activity inhibition assay, HDAC1; assay type: biochemical; settings: Table 1; mean of two experiments ± standard deviation; 10-point assay from 30 μM, 3-fold serial dilution
Sequence of Human HDAC1 (Q13547 whole entry): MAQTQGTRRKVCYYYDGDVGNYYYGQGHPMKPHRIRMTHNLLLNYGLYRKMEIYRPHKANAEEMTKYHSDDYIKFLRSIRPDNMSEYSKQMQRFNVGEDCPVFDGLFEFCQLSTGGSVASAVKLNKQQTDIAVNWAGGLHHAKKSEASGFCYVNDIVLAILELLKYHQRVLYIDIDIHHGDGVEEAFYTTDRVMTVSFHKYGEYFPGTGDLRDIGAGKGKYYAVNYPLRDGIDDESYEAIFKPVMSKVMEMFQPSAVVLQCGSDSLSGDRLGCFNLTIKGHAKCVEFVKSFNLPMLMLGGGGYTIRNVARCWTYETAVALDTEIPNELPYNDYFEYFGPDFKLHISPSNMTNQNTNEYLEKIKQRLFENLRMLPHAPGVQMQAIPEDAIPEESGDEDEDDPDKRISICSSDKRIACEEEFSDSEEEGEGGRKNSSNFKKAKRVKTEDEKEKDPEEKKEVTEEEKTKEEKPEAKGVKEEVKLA

[4] = test system: GBM6 cells; experiment: Growth inhibition of glioblastoma cell line GBM6; assay type: cell-based; settings: FIG. 4
[5] = target: HDAC2 (Homo sapiens (Human), UniProt Q92769); experiment: HDAC enzyme activity inhibition assay, HDAC2; assay type: biochemical; settings: Table 2; mean of two experiments
Sequence of HDAC2 (Q92769 whole entry): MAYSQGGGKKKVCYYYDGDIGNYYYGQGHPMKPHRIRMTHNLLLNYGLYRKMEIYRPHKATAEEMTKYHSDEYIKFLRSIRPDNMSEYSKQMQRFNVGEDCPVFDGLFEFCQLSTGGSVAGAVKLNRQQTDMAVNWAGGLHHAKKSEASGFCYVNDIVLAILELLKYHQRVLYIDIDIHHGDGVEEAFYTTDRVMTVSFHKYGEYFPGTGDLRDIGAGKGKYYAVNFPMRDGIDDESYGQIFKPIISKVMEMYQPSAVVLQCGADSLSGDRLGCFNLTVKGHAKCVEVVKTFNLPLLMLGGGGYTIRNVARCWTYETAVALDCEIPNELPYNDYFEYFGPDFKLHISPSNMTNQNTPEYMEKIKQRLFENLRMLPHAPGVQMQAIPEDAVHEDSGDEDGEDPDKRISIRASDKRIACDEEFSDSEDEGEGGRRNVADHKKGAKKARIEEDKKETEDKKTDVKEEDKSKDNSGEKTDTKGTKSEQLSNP

[6] = target: HDAC10 (Homo sapiens (Human), UniProt Q969S8); experiment: HDAC enzyme activity inhibition assay, HDAC10; assay type: biochemical; settings: Table 2; mean of two experiments
Sequence of HDAC10 (Q969S8 whole entry): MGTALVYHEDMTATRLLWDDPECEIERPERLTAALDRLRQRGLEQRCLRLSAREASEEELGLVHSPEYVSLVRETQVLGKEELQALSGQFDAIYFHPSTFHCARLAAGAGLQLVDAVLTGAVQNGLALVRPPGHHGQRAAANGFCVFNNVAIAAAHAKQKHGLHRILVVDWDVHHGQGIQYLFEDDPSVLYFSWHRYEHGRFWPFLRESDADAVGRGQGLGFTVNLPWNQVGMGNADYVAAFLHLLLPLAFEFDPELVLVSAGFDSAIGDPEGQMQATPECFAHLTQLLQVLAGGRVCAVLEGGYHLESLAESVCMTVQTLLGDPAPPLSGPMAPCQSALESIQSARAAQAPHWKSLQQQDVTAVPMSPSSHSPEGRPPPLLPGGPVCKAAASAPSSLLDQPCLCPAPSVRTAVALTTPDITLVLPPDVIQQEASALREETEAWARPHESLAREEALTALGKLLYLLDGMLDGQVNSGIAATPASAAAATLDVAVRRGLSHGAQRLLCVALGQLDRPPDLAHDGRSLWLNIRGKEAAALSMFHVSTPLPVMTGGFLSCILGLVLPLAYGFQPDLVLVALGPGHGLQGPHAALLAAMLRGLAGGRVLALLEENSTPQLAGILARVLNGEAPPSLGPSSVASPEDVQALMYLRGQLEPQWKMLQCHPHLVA

[7] = target: HDAC7 (Homo sapiens (Human), UniProt Q8WUI4); experiment: biochemical
[8] = test system: cardiac fibroblasts; experiment: Tubulin acetylation in adult rat cardiac fibroblasts; assay type: cell-based; settings: in comparison to the DMSO control (FIG. 2)
Experimental: The ability of the inhibitor to induce tubulin acetylation in cardiac fibroblasts was also determined and western blot is shown below.

[9] = target: HDAC8 (Homo sapiens (Human), UniProt Q9BY41); experiment: HDAC enzyme activity inhibition assay, HDAC8; assay type: biochemical
Sequence of HDAC8 (Q9BY41 whole entry): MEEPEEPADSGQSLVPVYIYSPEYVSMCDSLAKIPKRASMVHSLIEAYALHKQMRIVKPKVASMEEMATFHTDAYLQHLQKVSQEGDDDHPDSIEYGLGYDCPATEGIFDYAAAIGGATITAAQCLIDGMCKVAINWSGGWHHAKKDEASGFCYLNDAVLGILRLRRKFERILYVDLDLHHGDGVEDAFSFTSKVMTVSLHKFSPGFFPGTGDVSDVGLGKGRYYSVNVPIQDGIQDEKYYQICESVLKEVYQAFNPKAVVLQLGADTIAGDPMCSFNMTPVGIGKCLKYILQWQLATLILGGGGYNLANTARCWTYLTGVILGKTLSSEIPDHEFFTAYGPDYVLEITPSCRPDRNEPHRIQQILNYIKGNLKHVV

[10] = target: HDAC5 (Homo sapiens (Human), UniProt Q9UQL6); experiment: HDAC enzyme activity inhibition assay, HDAC5; assay type: biochemical; settings: Table 2; mean of two experiments
[11] = target: HDAC4 (Homo sapiens (Human), UniProt P56524); experiment: HDAC enzyme activity inhibition assay, HDAC4; assay type: biochemical; settings: Table 2; mean of two experiments
Sequence of HDAC4 (P56524 whole entry): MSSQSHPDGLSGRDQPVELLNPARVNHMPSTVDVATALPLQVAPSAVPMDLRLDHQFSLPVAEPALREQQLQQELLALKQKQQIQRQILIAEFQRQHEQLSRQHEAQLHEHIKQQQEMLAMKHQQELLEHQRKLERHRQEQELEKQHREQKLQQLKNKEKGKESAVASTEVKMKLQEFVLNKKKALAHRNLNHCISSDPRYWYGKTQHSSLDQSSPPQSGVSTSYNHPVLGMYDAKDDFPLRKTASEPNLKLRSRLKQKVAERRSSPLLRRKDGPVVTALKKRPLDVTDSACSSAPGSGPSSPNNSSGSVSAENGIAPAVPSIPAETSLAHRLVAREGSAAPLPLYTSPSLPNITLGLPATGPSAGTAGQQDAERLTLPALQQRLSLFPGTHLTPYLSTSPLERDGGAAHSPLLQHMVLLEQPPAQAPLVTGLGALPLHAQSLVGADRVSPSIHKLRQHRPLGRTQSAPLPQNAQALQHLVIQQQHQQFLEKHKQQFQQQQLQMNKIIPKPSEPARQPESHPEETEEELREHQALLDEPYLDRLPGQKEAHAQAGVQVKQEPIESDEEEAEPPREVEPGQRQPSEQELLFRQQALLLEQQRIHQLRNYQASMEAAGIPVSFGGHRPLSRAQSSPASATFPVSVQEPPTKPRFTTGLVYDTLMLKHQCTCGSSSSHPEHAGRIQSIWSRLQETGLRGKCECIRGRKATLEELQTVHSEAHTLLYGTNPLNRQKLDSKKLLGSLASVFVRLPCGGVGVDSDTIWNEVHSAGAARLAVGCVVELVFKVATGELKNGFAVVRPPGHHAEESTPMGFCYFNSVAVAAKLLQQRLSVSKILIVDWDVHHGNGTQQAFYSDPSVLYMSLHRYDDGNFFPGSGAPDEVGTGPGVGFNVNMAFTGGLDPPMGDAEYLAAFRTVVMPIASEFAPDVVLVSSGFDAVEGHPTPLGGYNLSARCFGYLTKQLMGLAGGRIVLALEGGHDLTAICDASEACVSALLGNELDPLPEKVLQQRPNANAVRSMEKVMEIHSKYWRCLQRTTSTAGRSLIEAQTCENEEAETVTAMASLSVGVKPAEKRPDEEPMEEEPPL

[12] = target: HDAC9 (Homo sapiens (Human), UniProt Q9UKV0); experiment: HDAC enzyme activity inhibition assay, HDAC9; assay type: biochemical; settings: Table 2; mean of two experiments
[13] = target: HDAC11 (Homo sapiens (Human), UniProt Q96DB2); experiment: HDAC enzyme activity inhibition assay, HDAC11; assay type: biochemical; settings: Table 2; mean of two experiments
[14] = target: HDAC3/NcoR2 complex (Homo sapiens (Human), UniProt O15379); experiment: HDAC enzyme activity inhibition assay, HDAC3; assay type: biochemical; settings: Table 2; mean of two experiments
Sequence of HDAC3/NcoR2 complex (O15379 whole entry): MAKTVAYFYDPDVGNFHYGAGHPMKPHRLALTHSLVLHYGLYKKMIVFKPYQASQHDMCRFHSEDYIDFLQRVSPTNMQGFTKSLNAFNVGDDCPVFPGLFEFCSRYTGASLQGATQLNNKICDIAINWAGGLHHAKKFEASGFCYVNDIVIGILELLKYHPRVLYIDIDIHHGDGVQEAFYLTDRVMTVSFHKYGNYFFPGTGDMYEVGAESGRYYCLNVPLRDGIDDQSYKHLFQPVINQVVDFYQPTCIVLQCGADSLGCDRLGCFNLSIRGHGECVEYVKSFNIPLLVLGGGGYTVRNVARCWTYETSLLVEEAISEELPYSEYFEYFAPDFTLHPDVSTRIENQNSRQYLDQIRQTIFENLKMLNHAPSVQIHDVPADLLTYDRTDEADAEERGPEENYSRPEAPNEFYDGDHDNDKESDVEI
Sequence of HDAC3/NcoR2 complex (Q9Y618 395-489 partner): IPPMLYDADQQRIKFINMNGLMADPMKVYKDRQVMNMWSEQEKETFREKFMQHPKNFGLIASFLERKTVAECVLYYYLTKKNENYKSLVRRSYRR

[15] = test system: symptomatic mutant HSPB1 mice; settings: cited from earlier work
[16] = test system: mice with colitis; settings: treatment begun once colitis had developed; cited from earlier work

CN(C)c1ccc(C(=O)NCCCCCNC(=O)CS)cc1 [DMA-PB, 4-dimethylamino-N-[5-(2-mercaptoacetylamino)pentyl]benzamide]
histone H3 acetylation and microglia inflammatory response [1]: increase histone H3 acetylation and reduce microglia inflammatory response

O=C(NO)c1ccc(CN2CCCc3ccccc32)cc1 [Example 1, 4-((3,4-dihydroquinolin-1(2H)-yl)methyl)-N-hydroxybenzamide]
IC50 [2]: 14.6 nM | Selectivity HDAC1/HDAC6 [2]: 760 | IC50 [3]: 11100 nM

O=C(NO)c1ccc(CN2CCCc3cc(Cl)ccc32)cc1 [Example 2, 4-((6-chloro-3,4-dihydroquinolin-1(2H)-yl)methyl)-N-hydroxybenzamide]
growth of glioblastoma cell line (GBM6) [4]: inhibit the growth | IC50 [5]: > 30000 nM | IC50 [6]: > 30000 nM | IC50 [7]: 4060 nM | tubulin acetylation [8]: robust tubulin acetylation | IC50 [9]: 3340 nM | IC50 [10]: 4550 nM | IC50 [11]: 11000 nM | IC50 [12]: 3460 nM | IC50 [13]: 746 nM | IC50 [14]: > 30000 nM

O=C(NO)c1ccc(CN2CCCc3cc(Cl)ccc32)c(F)c1 [Example 3, 4-((6-chloro-3,4-dihydroquinolin-1(2H)-yl)methyl)-3-fluoro-N-hydroxybenzamide]
IC50 [2]: 12.4 ± 5.5 nM | Selectivity HDAC1/HDAC6 [2]: 1706 | IC50 [3]: 21200 ± 1150 nM

CC(c1ccc(C(=O)NO)cc1)N1CCCc2cc(Cl)ccc21 (centres unmarked) [Example 4, 4-(1-(6-chloro-3,4-dihydroquinolin-1(2H)-yl)ethyl)-N-hydroxybenzamide]
IC50 [2]: 382 ± 20.5 nM | Selectivity HDAC1/HDAC6 [2]: 22 | IC50 [3]: 8430 ± 30 nM

O=C(NO)c1ccc(CN2CCCc3cc(F)ccc32)cc1 [Example 5, 4-((6-fluoro-3,4-dihydroquinolin-1(2H)-yl)methyl)-N-hydroxybenzamide]
IC50 [2]: 5.05 ± 0.23 nM | Selectivity HDAC1/HDAC6 [2]: 1037 | IC50 [3]: 5235 ± 45 nM

O=C(NO)c1ccc(CN2CCCc3cc(Cl)c(Cl)cc32)cc1 [Example 6, 4-((6,7-dichloro-3,4-dihydroquinolin-1(2H)-yl)methyl)-N-hydroxybenzamide]
IC50 [2]: 3.59 ± 0.1 nM | Selectivity HDAC1/HDAC6 [2]: 728 | IC50 [3]: 2620 ± 115 nM

O=C(NO)c1ccc(CN2CCCc3cc(F)c(Cl)cc32)cc1 [Example 7, 4-((7-chloro-6-fluoro-3,4-dihydroquinolin-1(2H)-yl)methyl)-N-hydroxybenzamide]
IC50 [2]: 3.43 ± 0.27 nM | Selectivity HDAC1/HDAC6 [2]: 544 | IC50 [3]: 1865 ± 5 nM

O=C(NO)c1ccc(CN2CCCc3cc(Cl)c(F)cc32)cc1 [Example 8, 4-((6-chloro-7-fluoro-3,4-dihydroquinolin-1(2H)-yl)methyl)-N-hydroxybenzamide]
IC50 [2]: 4.8 ± 0.78 nM | Selectivity HDAC1/HDAC6 [2]: 670 | IC50 [3]: 3220 ± 85 nM

CC1(C)CCc2cc(Cl)ccc2N1Cc1ccc(C(=O)NO)cc1 [Example 9, 4-((6-chloro-2,2-dimethyl-3,4-dihydroquinolin-1(2H)-yl)methyl)-N-hydroxybenzamide]
IC50 [2]: 328 ± 15.5 nM | Selectivity HDAC1/HDAC6 [2]: 60 | IC50 [3]: 19600 ± 2450 nM

CC1(C)CCc2cc(F)ccc2N1Cc1ccc(C(=O)NO)cc1 [Example 10, 4-((6-fluoro-2,2-dimethyl-3,4-dihydroquinolin-1(2H)-yl)methyl)-N-hydroxybenzamide]
IC50 [2]: 161 ± 3 nM | Selectivity HDAC1/HDAC6 [2]: 88 | IC50 [3]: 14100 ± 1900 nM

CC1(C)CC(=O)N(Cc2ccc(C(=O)NO)cc2)c2ccc(Cl)cc21 [Example 11, 4-((6-chloro-4,4-dimethyl-2-oxo-3,4-dihydroquinolin-1(2H)-yl)methyl)-N-hydroxybenzamide]
IC50 [2]: 28.9 ± 1.1 nM | Selectivity HDAC1/HDAC6 [2]: 225 | IC50 [3]: 6500 ± 230 nM

CC1(C)CCN(Cc2ccc(C(=O)NO)cc2)c2ccc(Cl)cc21 [Example 12, 4-((6-chloro-4,4-dimethyl-3,4-dihydroquinolin-1(2H)-yl)methyl)-N-hydroxybenzamide]
IC50 [2]: 37.8 ± 4.8 nM | Selectivity HDAC1/HDAC6 [2]: 516 | IC50 [3]: 19500 ± 700 nM

CC1(C)CCN(Cc2ccc(C(=O)NO)cc2)c2ccc(F)cc21 [Example 13, 4-((6-fluoro-4,4-dimethyl-3,4-dihydroquinolin-1(2H)-yl)methyl)-N-hydroxybenzamide]
IC50 [2]: 45.1 ± 0.05 nM | Selectivity HDAC1/HDAC6 [2]: 468 | IC50 [3]: 21100 ± 800 nM

O=C(NO)c1ccc(CN2CCNc3ccccc32)cc1 [Example 14, 4-((3,4-dihydroquinoxalin-1(2H)-yl)methyl)-N-hydroxybenzamide]
IC50 [2]: 2.9 ± 0.4 nM | Selectivity HDAC1/HDAC6 [2]: 3017 | IC50 [3]: 8750 ± 1070 nM

O=C(NO)c1ccc(CN2CCN(CC3CC3)c3ccccc32)cc1 [Example 15, 4-((4-(cyclopropylmethyl)-3,4-dihydroquinoxalin-1(2H)-yl)methyl)-N-hydroxybenzamide]
IC50 [2]: 39.3 ± 0.3 nM | Selectivity HDAC1/HDAC6 [2]: 170 | IC50 [3]: 6690 ± 270 nM

O=C(NO)c1ccc(CN2CCSc3ccccc32)cc1 [Example 16, 4-((2,3-dihydro-4H-benzo[b][1,4]thiazin-4-yl)methyl)-N-hydroxybenzamide]
IC50 [2]: 6.1 ± 0.1 nM | Selectivity HDAC1/HDAC6 [2]: 1300 | IC50 [3]: 7935 ± 25 nM

O=C(NO)c1ccc(CN2CC[S+]([O-])c3ccccc32)cc1 (centres unmarked) [Example 17, N-hydroxy-4-((1-oxido-2,3-dihydro-4H-benzo[b][1,4]thiazin-4-yl)methyl)benzamide]
IC50 [2]: 2 ± 0.1 nM | Selectivity HDAC1/HDAC6 [2]: 1300 | IC50 [3]: 2600 ± 30 nM

CC(C)(C)OC(=O)N1CC(=O)N(Cc2ccc(C(=O)NO)cc2)c2ccccc21 [Example 18, tert-butyl 4-(4-(hydroxycarbamoyl)benzyl)-3-oxo-3,4-dihydroquinoxaline-1(2H)-carboxylate]
IC50 [2]: 33.6 ± 1.9 nM | Selectivity HDAC1/HDAC6 [2]: 653 | IC50 [3]: 22000 ± 1550 nM

O=C(NO)c1ccc(Cn2c(=O)cnc3ccccc32)cc1 [Example 19, N-hydroxy-4-((2-oxoquinoxalin-1(2H)-yl)methyl)benzamide]
IC50 [2]: 1.2 ± 0.3 nM | Selectivity HDAC1/HDAC6 [2]: 870 | IC50 [3]: 1045 ± 5 nM

CN1CCc2c(c3ccccc3n2Cc2ccc(C(=O)NO)cc2)C1 [Tubastatin A]
axonal transport defects and CMT phenotype [15]: corrects the axonal transport defects induced by HSPB1 mutations and rescues the CMT phenotype

O=C(CCCCCCC(=O)Nc1ccc([C@H]2O[C@@H](CSc3nc(-c4ccccc4)c(-c4ccccc4)o3)C[C@@H](c3ccc(CO)cc3)O2)cc1)NO [tubacin]
rescue of mice with colitis [16]: able to rescue mice
